Experimental data published in patent publication US20250154607A1, “ISOTHERMAL AMPLIFICATION OF PATHOGENS” (priority 2021, published 2025).
Converted amounts (≈) assume the structure as drawn.

Tests used:
[1] = biological target: T1, RNase A (Bos taurus, UniProt P61823); assay: Influenza B virus APA assay with RNase A in ELB (Elution/Lysis Buffer); assay type: biochemical; settings: RNAse A 10 μg/ml; 2 minutes 58° C. in ELB with 0.2% SDS, without or with 10 mM DTT; β-CD 4% final
T1 sequence (P61823 27-150): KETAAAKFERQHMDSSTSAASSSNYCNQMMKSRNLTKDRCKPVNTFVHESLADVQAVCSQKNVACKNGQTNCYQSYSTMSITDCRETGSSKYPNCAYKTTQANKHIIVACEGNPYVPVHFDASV
Description: FIGS. 12A-12B depict data related to RNase A inactivation in an influenza B assay like the one in Example 4, with DTT in ELB (Elution/Lysis Buffer). […] After incubation, lyophilized APA reagents co-incubated 2 minutes 58° C., containing β-CD (4% final) were dissolved with the heated solutions, and FAM fluorescence collected every 15 seconds to monitor APA. […] The inclusion of DTT enables unimpeded operation of this POC influenza detection system in a mock sample containing very high level of purified RNase A ([…]). Moreover, while currently available methods can only achieve irreversible ribonuclease inactivation at a maximum 200 ng/ml, the compositions and methods provided herein show utility with 10 μg/ml to accommodate potentially larger amounts in patient samples.

[2] = biological target: T1, RNase A; assay: RNaseAlert assay of RNase A inactivation with CTAB and DTT after sequestration by HP-βCD; assay type: biochemical; settings: for RNase A inactivation, activity upon sequestration of the detergent: 68° C.; for RNase A activity after CTAB sequestration by 4% HP-βCD: 20 ng RNase A, various temperatures
Description: FIG. 7 depicts data related to the effect of DTT on the irreversibility of RNase A inactivation in the presence of CTAB at various temperatures. To simulate authentic reaction conditions, standard APA reaction reagents lacking 9° Nm™ DNA polymerase but containing 4% HP-βCD were prepared in a lyophilized format. The lyophilized reagents also contained the RNaseAlert® assay substrate, a synthetic quenched RNA probe which releases fluorescence in the presence of active RNase A. Reagents were preincubated 2 minutes and dissolved at the indicated temperatures with […] solutions containing 20 ng RNase A ([…]) with (dotted lines) or without (shapes) 10 mM DTT which had also been preincubated at the indicated temperatures on a Bio-Rad CFx thermocycler with programmed temperature gradient.
FIG. 8 depicts data related to effect of DTT and HP-βCD on RNase A inactivation. An RNase Alert assay was used to study the effect of DTT and 0.2% cationic detergent CTAB on RNase inactivation. RNase A was spiked into solutions containing 0.2% CTAB which were then mixed with lyophilized APA reagent pellets lacking enzymes but containing RNase Alert substrate and protective agent (4% HP-0 CD) after preincubation of all solutions at 68° C. followed by fluorescence data collection at 68° C.

[3] = tested on: nasal swab ribonucleases; assay: Protection of RNA from nasal swab ribonucleases (influenza B RNA APA); assay type: biochemical, human; settings: nasal swab eluate 4% of swab; 0.2% SDS with or without 10 mM DTT; 2 minutes at 58° C.; then 4% βCD
[4] = biological target: T1, RNase A; assay: RNase Alert assay of RNase A activity recovery after SDS/DTT pretreatment; assay type: biochemical
Description: 2 ng RNase A was incubated 2 minutes at 58° C. in […] solutions containing either 10 mM DTT+0.2% SDS (+), 0.2% SDS (triangle), 10 mM DTT (square), or neither (solid line) and then the RNase Alert assay was used to study the recovery of any RNase activity upon sequestration of SDS after dissolving lyophilized APA reagents without enzymes but containing RNase Alert substrate and protective agent (4% βCD) with continued incubation and fluorescence data collection at 58° C. In the presence of RNase activity, the RNase alert indicator substrate releases detectable fluorescence. […] FIG. 11A depicts recovery of RNase A activity after identical pretreatment without addition of βCD, in this case monitoring activity in […] of the solution by transfer to an RNase alert “wet” reaction format. […] Thus, as shown here, simultaneous treatment with ionic detergent and reducing agent is required for successful irreversible inactivation under the conditions described herein. […] Without being bound by any particular theory, this may be related to the impact of cyclodextrin and other APA additives on the refolding process. This example also provides further confirmation that the prior art and currently available methods (e.g, employing a reducing agent but no denaturant) are inadequate under these conditions, with an independent, commercially available RNase assay.

[5] = biological target: T2, 9° Nm™ DNA polymerase (Thermococcus sp., UniProt Q56366, E143D); assay: APA amplification of Chlamydia trachomatis DNA with CTAB, with or without HP-βCD; assay type: biochemical
T2 sequence (Q56366 whole entry E143D): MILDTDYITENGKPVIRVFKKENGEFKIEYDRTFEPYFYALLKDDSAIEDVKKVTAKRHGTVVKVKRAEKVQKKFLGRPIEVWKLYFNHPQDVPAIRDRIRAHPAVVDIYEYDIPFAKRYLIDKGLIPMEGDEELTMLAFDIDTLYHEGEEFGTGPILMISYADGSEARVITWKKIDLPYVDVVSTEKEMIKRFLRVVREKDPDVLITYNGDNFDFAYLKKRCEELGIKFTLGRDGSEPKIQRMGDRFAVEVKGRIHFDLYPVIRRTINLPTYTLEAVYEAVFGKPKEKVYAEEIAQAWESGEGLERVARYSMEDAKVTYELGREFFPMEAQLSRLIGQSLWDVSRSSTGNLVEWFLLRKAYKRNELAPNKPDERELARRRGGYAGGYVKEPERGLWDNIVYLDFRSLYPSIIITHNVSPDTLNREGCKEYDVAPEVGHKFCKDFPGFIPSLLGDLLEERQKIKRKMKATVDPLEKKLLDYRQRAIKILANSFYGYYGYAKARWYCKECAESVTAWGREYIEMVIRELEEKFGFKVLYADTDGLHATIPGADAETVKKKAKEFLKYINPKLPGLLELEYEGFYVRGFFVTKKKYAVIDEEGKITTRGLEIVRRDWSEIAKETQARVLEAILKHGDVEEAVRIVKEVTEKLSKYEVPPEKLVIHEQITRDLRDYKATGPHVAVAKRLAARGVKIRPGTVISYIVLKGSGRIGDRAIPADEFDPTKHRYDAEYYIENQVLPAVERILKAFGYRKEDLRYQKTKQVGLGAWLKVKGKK
Description: APA reactions containing CAdNTP and sequence-specific molecular beacon detection probes were performed as above in lyophilized (with HP-βCD; FIG. 3B) or wet reactions (no HP-βCD; FIG. 3A) and various amounts of the cationic detergent CTAB, without (“NTC”) or with the addition of 500 copies of C. trachomatis total cell DNA. Activation of CAdNTP by heating 2 minutes at 90° C. was followed by APA at 68° C. with fluorescence collected every 15 seconds.

[6] = cited from earlier work
[7] = biological target: T1, RNase A; assay: Requirements for irreversible RNase inactivation (influenza B RNA APA in presence of RNase A); assay type: biochemical; settings: 500 ng RNase A (10 μg/ml); additions 0.2% SDS, 10 mM DTT, 0.1% Triton X-100 as labelled; 2 minutes at 58° C.; then 4% βCD
[8] = biological target: T2, 9° Nm™ DNA polymerase; assay: Order-of-addition assay (APA of S. enterica DNA, SDS and hydroxypropyl β-CD); assay type: biochemical; settings: 4% hydroxypropyl β-CD added prior to 0.4% SDS
Description: Order-of-addition assay: Detection time dependent on cyclodextrin addition prior to brief interaction of enzymes with SDS. Since SDS rapidly and irreversibly inactivated 9° Nm™ DNA polymerase, when the enzyme is instead simultaneously exposed to SDS and β-CD, the kinetics of complexation of the latter two substances must be very rapid, compared with the rate of interaction between SDS and the enzyme.
FIG. 6 depicts data related to detection of S. enterica DNA target (50,000 copies) by APA reactions in a wet “hot-start” format mediated by CleanAmp™ deoxynucleotides (CAdNTP) containing Tris pH7.6, KCl, (NH4)2SO4, MgSO4, Triton X-100, SYBRI, CAdNTP, 9° Nm™ DNA polymerase, with additions of 0.4% SDS (X), 4% hydroxypropyl β-CD (squares), SDS then immediately β-CD (circles), or β-CD then SDS (solid line) with mixing. Control (ctrl dotted line) was no additions. All samples included DNA target. Isothermal APA was at 68° C., collecting intercalating dye fluorescence every 15 seconds to monitor all exponential DNA amplification. […] Negative controls for each condition without S. enterica DNA confirmed specificity of indicated amplification products (not shown).

[9] = tested on: Chlamydia trachomatis elementary bodies; assay: Lysis of Chlamydia trachomatis elementary bodies, read out by APA; settings: APA reaction mix containing 4% cyclodextrin HP-βCD
Description: Elementary body lysis (˜40/reaction) was probed in this example using an APA-based assay. Elementary bodies (Acrometrix) were added to either cold chlamydia transport media (SPD containing sucrose, phosphate buffer, and glutamic acid), TE (Tris-EDTA 10-1), or lysis buffer containing 0.4% SDS, pH 2.2. The samples in TE or SDS were heated 5 minutes at 95° C. (heat lysis) or 2 minutes at 78° C. (SDS lysis), respectively. Then 5 μl (containing 40 elementary bodies) was added to “wet” APA reaction mix as above (pH 7.6 to facilitate isothermal CAdNTP activation) containing 4% cyclodextrin HP-βCD for isothermal APA (68° C.) with fluorescence from a chlamydia-specific molecular beacon collected every 15 seconds.

[10] = tested on: influenza B RNA; assay: Reverse-transcription APA detection of influenza B RNA with SDS and lyophilized reagents containing cyclodextrin; assay type: biochemical; settings: 0.2% SDS lysis solution, 500 IU influenza B RNA, 4% betaCD in lyophilized reagents
Description: APA was performed with lyophilized reagents (including β-cyclodextrin, dNTPs, 35 units reverse transcriptase, KCl, EGTA (or EDTA), Tx-100, Tween 80, poly rA, Tris pH8.4, dextran 40k, 4% betaCD, trehalose, primers, probe, 9° Nml™)
After two minutes at 58° C. (to facilitate reverse transcription) the temperature was raised to 68° C. for APA and fluorescence detection.

[11] = biological target: T2, 9° Nm™ DNA polymerase; assay: APA amplification of Neisseria gonorrhea DNA with SDS, with or without HPβCD; assay type: biochemical; settings: 4% HPβCD, lyophilized reagents, 500 copies N. gonorrhea genomic DNA
Description: This example provides SDS complexation analyses of the methods and compositions provided herein. […] Anionic detergent SDS at >0.01% is inhibitory to APA amplification of DNA, but the presence of the protective agent hydroxypropyl β-CD (βCD) allowed amplification to proceed despite≤0.2% SDS. The kinetics of hydroxypropyl β-CD sequestration of SDS were thus sufficiently rapid at a molar ratio of 2:1 (˜14 mM: −7 mM) to prevent 9° Nm™ DNA polymerase inactivation by SDS.
Standard APA reactions with or without 4% Sigma 389145 HPβCD containing “hot-start” CleanAmp™ deoxynucleotides (CAdNTP) and a sequence-specific molecular beacon detection probe were performed with lyophilized ((supplemented with dextran 40, Trehalose), FIG. 2B) or “wet” (no HPβCD, FIG. 2A) reagents including Tris pH 8.4, KCl, MgSO4, and (NH4)2SO4 Triton X-100, 9° Nm™ DNA polymerase, CAdNTP, primers and probe. For the lyophilized reactions, samples were prepared in 50 μl solution containing MgSO4, and (NH4)2SO4 with (shapes) or without (dashed) 500 copies of N. gonorrhea genomic DNA. After dried reagents were dissolved with the samples, various amounts of SDS were added, as indicated, and solutions were vortexed. For the wet reactions, 45 μl master mix containing all reaction components was added to 5 μl sample containing 1OX SDS (final concentration as indicated), with and without 500 copies of N. gonorrhea genomic DNA. Activation of CAdNTP by 2 minutes 90° C. was followed by APA at 68° C. for 10 minutes with detection of the NG amplification product by fluorescence collected every 15 seconds.

O[C@H](CS)[C@H](O)CS (racemic) [DTT, dithiothreitol]
Influenza B virus APA performance in presence of RNAse A [1]: performance equivalent to a no RNAse A control
RNase A inactivation, activity upon sequestration of the detergent ([2]; 0.2% CTAB with 10 mM DTT, 4% HP-βCD): effectively irreversibly inactivated
RNase A activity after CTAB sequestration by 4% HP-βCD ([2]; with 10 mM DTT): no restored activity was detected
Influenza B RNA detection after nasal swab eluate pretreatment and SDS sequestration [3]: restored detection
Recovery of RNase A activity after pretreatment, with βCD ([4]; 2 ng RNase A, 2 minutes at 58° C., 10 mM DTT and/or 0.2% SDS, then 4% βCD): virtually full recovery of enzyme activity
Recovery of RNase A activity after pretreatment, without addition of βCD ([4]; 10 mM DTT alone, wet RNase alert format): did not impact recovery of RNase A activity

CCCCCCCCCCCCCCCC[N+](C)(C)C.[Br-] [CTAB, cetyltrimethylammonium bromide]
CTAB concentration giving complete inactivation of APA ([5]; absence of HP-βCD, 500 copies C. trachomatis total cell DNA): > 0.01%
RNase A inactivation, activity upon sequestration of the detergent ([2]; 0.2% CTAB only, RNase A 10 μg/ml and 1 μg/ml): activity was rapidly restored
RNase A activity after CTAB sequestration by 4% HP-βCD ([2]; without DTT): immediate reversibility

OC[C@H]1O[C@@H]2O[C@H]3[C@H](O)[C@@H](O)[C@@H](O[C@H]4[C@H](O)[C@@H](O)[C@@H](O[C@H]5[C@H](O)[C@@H](O)[C@@H](O[C@H]6[C@H](O)[C@@H](O)[C@@H](O[C@H]7[C@H](O)[C@@H](O)[C@@H](O[C@H]1[C@H](O)[C@H]2O)O[C@@H]7CO)O[C@@H]6CO)O[C@@H]5CO)O[C@@H]4CO)O[C@@H]3CO [α-Cyclodextrin]
water solubility [6]: 50 mg/mL (≈ 51.4 mM)

Triton X-100
Influenza B RNA detection by APA after RNase A pretreatment [7]: no RNA detection

hydroxypropyl-β-cyclodextrin [HP-βCD]
Effect on APA amplification [8]: restoring detection time, although with reduced plateau
CTAB concentration completely tolerated by APA in presence of the protectant ([5]; with HP-βCD, lyophilized reactions): at least 0.2%
Impact of persisting 0.4% ionic detergent on 9° Nm™ DNA polymerase-mediated amplification [9]: had no impact
Restoration of assay performance in the presence of SDS [10]: virtually complete restoration of assay performance
SDS concentration tolerated by APA amplification in presence of the protective agent [11]: at least 0.2%
SDS concentration tolerated by APA amplification in presence of the protective agent ([11]; listed as hydroxypropyl β-CD): ≤ 0.2%
